Residues, ends and D or L forms follow the SMILES beside them.

Data set [1] deals with tic disorders. Description: Test Case 1: a case with improved tic disorder. Type of data set: in vivo, human. The settings on record: for effect of earlier drug therapy on tic symptoms (history): patient history before theanine. The source says:
<Test Case 1> A Case with Improved Tic Disorder
Patient: (Sixth grade elementary school student);
Chief complaint: shaking hands and head
History: Since being elected as temporary class representative of the fourth grade class of elementary school, the patient had blinking eyes and subsequently shook their face and shoulders; thus, they visited a nearby hospital and received diazepam. […] In the following year, around the time of moving to Osaka, the patient suffered a relapse of symptoms of shaking their face and shoulders again and thus visited the pediatric department of O hospital and received haloperidol.

For a further data set, the system named is Tourette's disorder. Description: Test Case 2: a case with improved Tourette's disorder. It is filed as in vivo, human. The source says: <Test Case 2> A Case with Improved Tourette's Disorder
Patient: child; body weight: 43 kg
The tics were milder when they were in school or with others, and were more frequently observed in the presence of only their family. (in the third semester of the sixth grade), they visited our clinic worrying about bullying at their junior high school. […] In addition, the patient continuously moved their hands and legs and tended to be restlessly absent-mindedly hyperactive.
Psychosocial case history: The patient was always crying due to inherent sensitivity; thus, their parent felt anxious about child-rearing. They were severely afraid of strangers and timid, and often cried for fear. […] They often cut into others' conversation and was too talkative. Their parent can get along with their younger sibling casually, but is feeling awkwardness and pain with the patient due to the lack of closeness. Their parent is not nagging so much, and seems to accept the patient. Clinical course: The patient was diagnosed as having Tourette's disorder, and the disease was explained to their parents. To alleviate the symptoms, haloperidol (trade name: Serenase (trademark); Dainippon Pharmaceutical Co. Ltd.) was used.
The administration of theanine is scheduled to be continued until the end of puberty. The patient has joined their junior high school track club, and has tics, although unnoticeable. The patient has become a bit disobedient and often falls silent, but is highly motivated with study.

A further data set has as its system mice. Type of data set: in vivo. Particulars: oral administration of 5 g/kg.
The subject of data set [2] is tic disorders. In words: Test Case 3: a case with improved tic disorder. Particulars: patient; 0.8 g theanyl-theanine daily for 30 days. Type of data set: in vivo, human. The source says: <Test Case 3> A Case with Improved Tic Disorder
Patient: child; height 121 cm; body weight 20 kg
Chief complaint: repetitive guttural
They were diagnosed as having tics.
The parent disciplined the child by scolding. They were pressed with child-rearing and housework and had little free time; thus, they were always nagging due to frustration. In July 1990, the patient developed involuntary movements of shaking their shoulders up and down, and in addition, repetitive guttural. In Sep. 6, 1990, the patient first visited the clinic. The affected child was thin with abdominal palpitation and spasms of the musculus rectus abdominis. Since October, the patient received 8 tablets combined with theanyl-theanine in example 5 (0.8 g theanyl-theanine) daily for 30 days.

With `O=C(CCCN1CCC(O)(c2ccc(Cl)cc2)CC1)c1ccc(F)cc1` [haloperidol], in the data set with tic disorders [1] (patient, increased dosage, patient history), the “adverse effects of earlier drug therapy (history)” value was “speech defect”. For the same molecule, the “effect of earlier drug therapy on tic symptoms (history)” value with tic disorders [1] (patient) was “insufficient effect”. Also, the “adverse effects of earlier drug therapy” value in the data set on Tourette's disorder (patient, 0.25 mg to 0.5 mg) is on record as “drowsiness was caused as an adverse effect”. Besides, the “symptoms of Tourette's disorder under earlier drug therapy” value in the data set with Tourette's disorder (patient, dosage gradually increased from 0.25 mg to 0.5 mg) is “alleviated the symptoms such as tics and restlessness”.

With `CCNC(=O)CC[C@H](N)C(=O)O` [theanine, L-theanine], in the data set with mice, the “death or abnormality in general conditions and body weight” value was “neither death nor abnormality in general conditions and body weight was observed”. Also, the adverse effects entry in the data set with tic disorders [1] (in vivo) and with Tourette's disorder (in vivo) was “no adverse effects” throughout.

For the molecule `CN1C(=O)CN=C(c2ccccc2)c2cc(Cl)ccc21` [diazepam], in the data set with tic disorders [1] (patient), the “effect of earlier drug therapy on tic symptoms (history)” value is recorded as “no effect”.

For `CCNC(=O)CC[C@H](NC(=O)[C@@H](N)CCC(=O)NCC)C(=O)O` [theanyl-theanine] (H-Glu(NHEt)-Glu(NHEt)-OH), the adverse effects result in the data set with tic disorders [2] is reported as “no adverse effects”.

Source of the values: patent US20060217321A1, “Compositions to improve tic disorders” (priority 2005, published 2006).
